Experimental data from patent publication US20050176773A1, “Antiproliferative 2-(heteroaryl)-aminothiazole compounds and pharmaceutical compositions, and method for their use” (AGOURON PHARMACEUTICALS, INC., priority 2003, published 2005).

Experiments:
HCT-116 cells = experiment: Inhibition of cell growth, MTT tetrazolium salt assay; format: cell-based; settings: Homo sapiens, 144 h, four to six days incubation; for IC50: first value of the cell, read-out: HCT116 IC50; for IC90: second value of the cell, 90% inhibition of growth, read-out: HCT116 IC90
Procedure: Inhibition of Cell Growth: Assessment of Cytotoxicity:
Inhibition of cell growth was measured using the tetrazolium salt assay, which is based on the ability of viable cells to reduce 3-(4,5-dimethylthiazol-2-yl)-2,5-[2H]-diphenyltetrazolium bromide (MTT) to formazan (Mosmann, T. J. Immunol. Methods 1983, 65, 55-63). The water-insoluble purple formazan product was then detected spectrophotometrically. HCT-116 cells were grown in 96-well plates. Cells were plated in the appropriate medium at a volume of 135 μl/well in either McCoy's 5A Medium. Plates were incubated for 4 hours before addition of inhibitor compounds. Different concentrations of inhibitor compounds were added in 0.5% (v/v) dimethylsulfoxide (15 μL/well), and cells were incubated at 37° C. (5% CO2) for four to six days (depending on cell type). At the end of the incubation, MTT was added to a final concentration of 0.2 mg/mL, and cells were incubated for 4 hours more at 37° C. After centrifugation of the plates and removal of medium, the absorbance of the formazan (solubilized in dimethylsulfoxide) was measured at 540 nm. The concentration of inhibitor compound causing 50% (IC50) or 90% (IC90) inhibition of growth was determined from the linear portion of a semi-log plot of inhibitor concentration versus percentage inhibition. All results were compared to control cells treated only with 0.5% (v/v) dimethylsulfoxide.

[1] = target: T1, CDK2 / proteolyzed cyclin A complex (Homo sapiens, UniProt P24941); experiment: Inhibition of CDK2/Cyclin A retinoblastoma kinase activity; format: biochemical; settings: Rb fragment substrate, CDK2 at 10 nM or 19 nM
T1 construct: made in house; host or cells: CDK2: insect cells (baculovirus); cyclin A: E. coli, then limited proteolysis
Excerpt: Inhibition of CDK2/Cyclin A Retinoblastoma Kinase Activity:
CDK2 was purified using published methodology (Rosenblatt, J.; De Bondt, H.; Jancarik, J.; Morgan, D. O.; Kim, S. H. J. Mol. Biol. 1993, 230, 1317-1319) from insect cells that had been infected with a baculovirus expression vector. Cyclin A was purified from E. coli cells expressing full-length recombinant cyclin A, and a truncated cyclin A construct was generated by limited proteolysis and purified as described previously (Jeffrey, P. D.; Russo, A. A.; Polyak, K.; Gibbs, E.; Hurwitz, J.; Massague, J.; Pavletich, N. P. Nature 1995, 376, 313-320.). A complex of CDK2 and proteolyzed cyclin A was prepared and purified by gel filtration. The substrate for this assay was the same Rb substrate fragment used for the CDK4 assays, and the methodology of the CDK2/delta cyclin A and the CDK4/delta cyclin D3 assays was essentially the same, except that CDK2 was present at 10 nM or 19 nM. The duration of the assay was 60 or 75 minutes, during which the time dependence of product formation was linear and initial rate conditions were met.

[2] = target: T2, human CDK4 / truncated (1-264) cyclin D3 complex (Homo sapiens, UniProt P11802); experiment: Inhibition of CDK4/Cyclin D retinoblastoma kinase activity; format: biochemical; settings: Rb fragment substrate, enzyme complex 5 nM
T2 construct: made in house; host or cells: insect cells (baculovirus co-infection)
Procedure: Inhibition of CDK4/Cyclin D Retinoblastoma Kinase Activity:
A complex of human CDK4 and genetically truncated (1-264) cyclin D3 was purified using traditional biochemical chromatographic techniques from insect cells that had been co-infected with the corresponding baculovirus expression vectors (see e.g., Meijer, L.; Kim, S.-H. In Methods Enzymol. 1997, 283, 113-128). The enzyme complex (5 nM) was assayed with 0.3-0.5 μg of purified recombinant retinoblastoma protein fragment (Rb) as a substrate. The engineered Rb fragment (residues 386-928 of the native retinoblastoma protein; 62.3 kDa) contains the majority of the phosphorylation sites found in the native 106-kDa protein, as well as a tag of six histidine residues for ease of purification. Phosphorylated Rb substrate was captured by microfiltration on a nitrocellulose membrane and quantified using a phosphorimager as described above. For measurement of tight-binding inhibitors, the assay duration was extended to 60 minutes, during which the time dependence of product formation was linear and initial rate conditions were met.

T2 sequence (P11802 whole entry, the tested form may be a part): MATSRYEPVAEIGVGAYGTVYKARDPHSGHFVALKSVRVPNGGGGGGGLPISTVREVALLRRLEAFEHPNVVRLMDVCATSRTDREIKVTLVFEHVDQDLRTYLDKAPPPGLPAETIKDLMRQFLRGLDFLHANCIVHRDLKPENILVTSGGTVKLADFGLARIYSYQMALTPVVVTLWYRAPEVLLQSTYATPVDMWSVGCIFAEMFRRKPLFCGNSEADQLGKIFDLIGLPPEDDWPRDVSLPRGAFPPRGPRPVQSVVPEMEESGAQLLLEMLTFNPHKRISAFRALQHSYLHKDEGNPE
T2 sequence (P30281 1-264 partner limits assumed): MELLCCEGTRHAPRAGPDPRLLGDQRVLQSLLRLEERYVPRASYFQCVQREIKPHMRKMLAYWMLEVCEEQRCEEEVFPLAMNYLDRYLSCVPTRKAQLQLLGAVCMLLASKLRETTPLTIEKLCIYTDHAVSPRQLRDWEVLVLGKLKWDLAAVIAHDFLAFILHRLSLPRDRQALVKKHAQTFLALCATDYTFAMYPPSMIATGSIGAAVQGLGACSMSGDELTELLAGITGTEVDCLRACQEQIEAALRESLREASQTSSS

Structure (SMILES) | IC50 (HCT-116 cells) | IC90 (HCT-116 cells) | Ki [1] | Ki [2]
Nc1nc(Nc2ccc(C(=O)NCc3ccccn3)cn2)sc1C(=O)c1c(F)cccc1F [Example 1C, 6-[4-Amino-5-(2,6-difluoro-benzoyl)-thiazol-2-ylamino]-N-pyridin-2-ylmethyl-nicotinamide] | 79 nM | 210 nM | 7.2 nM | 12 nM
Nc1nc(Nc2ccc(C(=O)NCc3cccnc3)cn2)sc1C(=O)c1c(F)cccc1F [Example 1D, 6-[4-Amino-5-(2,6-difluoro-benzoyl)-thiazol-2-ylamino]-N-pyridin-3-ylmethyl-nicotinamide] | 410 nM | > 5000 nM | 5.7 nM | 6.6 nM
Nc1nc(Nc2ccc(C(=O)Nc3ccccc3)cn2)sc1C(=O)c1c(F)cccc1F [Example 1E, 6-[4-Amino-5-(2,6-difluoro-benzoyl)-thiazol-2-ylamino]-N-phenyl-nicotinamide] | 180 nM | 400 nM | 17 nM | 18 nM
Nc1nc(Nc2ccc(C(=O)Nc3ccccn3)cn2)sc1C(=O)c1c(F)cccc1F [Example 1G, 6-[4-Amino-5-(2,6-difluoro-benzoyl)-thiazol-2-ylamino]-N-pyridin-2-yl-nicotinamide] | 170 nM | 36000 nM | 18 nM | 35 nM
CCN1CCCC1CNC(=O)c1ccc(Nc2nc(N)c(C(=O)c3c(F)cccc3F)s2)nc1 (centres unmarked) [Example 1H, 6-[4-Amino-5-(2,6-difluoro-benzoyl)-thiazol-2-ylamino]-N-(1-ethyl-pyrrolidin-2-ylmethyl)-nicotinamide] | 32 nM | 60 nM | 43 nM | 7.1 nM
CNC(C)(C)CNC(=O)c1ccc(Nc2nc(N)c(C(=O)c3c(F)cccc3F)s2)nc1 [Example 1M] | 70 nM | 250 nM | 35 nM | 2.3 nM
CN1CCN(c2ccc(Nc3nc(N)c(C(=O)c4c(F)cccc4F)s3)nc2)CC1 [Example 2A, {4-Amino-2-[5-(4-methyl-piperazin-1-yl)-pyridin-2-ylamino]-thiazol-5-yl}-(2,6-difluoro-phenyl)-methanone] | 70 nM | 180 nM | 32 nM | 1.1 nM
CNCCNC(=O)c1ccc(Nc2nc(N)c(C(=O)c3c(F)cccc3F)s2)nc1 [Example 3A] | 210 nM | 700 nM | 21 nM | 3.3 nM
CN1CCC[C@H]1CNC(=O)c1ccc(Nc2nc(N)c(C(=O)c3c(F)cccc3F)s2)cn1 [Example C1A, 5-[4-Amino-5-(2,6-difluoro-benzoyl)-thiazol-2-ylamino]-pyridine-2-carboxylic acid (1-methyl-pyrrolidin-2S-ylmethyl)-amide, reference compound] | 230 nM | 650 nM | 320 nM | 37 nM
C[C@H](CN(C)C)NC(=O)c1ccc(Nc2nc(N)c(C(=O)c3c(F)cccc3F)s2)cn1 [Example C1B, 5-[4-Amino-5-(2,6-difluoro-benzoyl)-thiazol-2-ylamino]-pyridine-2-carboxylic Acid (2-Dimethylamino-1R-methyl-ethyl)-amide, reference compound] | 120 nM | 280 nM | 400 nM | 120 nM

Molecules with a lower IC50 (HCT-116 cells), results first:

IC50 (HCT-116 cells) | IC90 (HCT-116 cells) | Ki [1] | Ki [2] | Structure (SMILES)
7 nM | 170 nM | 7.3 nM | 0.77 nM | CN1CCC[C@H]1CNC(=O)c1ccc(Nc2nc(N)c(C(=O)c3c(F)cccc3F)s2)nc1 [Example 1A]
5.8 nM | 20 nM | 39 nM | 2.7 nM | CN(C)C1(CNC(=O)c2ccc(Nc3nc(N)c(C(=O)c4c(F)cccc4F)s3)nc2)CCC1 [Example 1B, 6-[4-Amino-5-(2,6-difluoro-benzoyl)-thiazol-2-ylamino]-N-(1-dimethylaminocyclobutylmethyl)-nicotinamide]
17 nM | 40 nM | 18 nM | 4.3 nM | Nc1nc(Nc2ccc(C(=O)NCCN3CCCCC3)cn2)sc1C(=O)c1c(F)cccc1F [Example 1F, 6-[4-Amino-5-(2,6-difluoro-benzoyl)-thiazol-2-ylamino]-N-(2-piperidin-1-yl-ethyl)-nicotinamide]
2.6 nM | 5.7 nM | 4.4 nM | 0.61 nM | C[C@H](CN(C)C)NC(=O)c1ccc(Nc2nc(N)c(C(=O)c3c(F)cccc3F)s2)nc1 [Example 1I, 6-[4-Amino-5-(2,6-difluoro-benzoyl)-thiazol-2-ylamino]-N-(2-dimethylamino-1R-methyl-ethyl)-nicotinamide]
17 nM | 50 nM | 11 nM | 2.2 nM | Nc1nc(Nc2ccc(C(=O)NCCN3CCCC3)cn2)sc1C(=O)c1c(F)cccc1F [Example 1J, 6-[4-Amino-5-(2,6-difluoro-benzoyl)-thiazol-2-ylamino]-N-(2-pyrrolidin-1-yl-ethyl)-nicotinamide]
8.8 nM | 21 nM | 9.8 nM | 1.4 nM | CN(C)CCNC(=O)c1ccc(Nc2nc(N)c(C(=O)c3c(F)cccc3F)s2)nc1 [Example 1K, 6-[4-Amino-5-(2,6-difluoro-benzoyl)-thiazol-2-ylamino]-N-(2-dimethylamino-ethyl)-nicotinamide]
2.5 nM | 8.5 nM | 8.6 nM | 1.3 nM | CN(C)C(C)(C)CNC(=O)c1ccc(Nc2nc(N)c(C(=O)c3c(F)cccc3F)s2)nc1 [Example 1L]
